Experimental data from patent US6346544B2, “Desmethyl tocopherols for protecting cardiovascular tissue” (Oklahoma Medical Research Foundation, priority 2000, dated 2002).

Experiments:
αKGDH [1] = assay: αKGDH protection against SIN-1 nitrative stress in isolated mitochondria in vitro; format: biochemical, rat; settings: 400 μM SIN-1, one hour
Protocol: FIG. 3 is a graph showing rat brain mitochondria exposed to 0.4 mM SIN-1 for 1 H after addition of tocopherol. (•)α-tocopherol; (▪)γ-tocopherol. The scale bars labeled [α]norm and [Y]norm indicate the normal endogenous quantities of α-tocopherol and γ-tocopherol, respectively, in human brain.
αKGDH is a rate-limiting enzyme of mitochondrial energy production which is diminished in conditions of vascular ischemia (53-58); augmentation of the enzyme with α-ketoglutarate has been found beneficial and α-ketoglutarate is now included as a component in cardioplegia fluid to improve recovery after heart surgery (59). We undertook to determine whether γT protects αKGDH against nitrative stress in vitro. Mitochondria were isolated from adult rat brain then sonicated briefly in the presence of either αT or γT, or an ethanol vehicle. Mitochondria were then exposed to SIN-1, which generates NO and superoxide simultaneously at a known rate (7). Combination of NO and superoxide yields ONOO^−. in situ (discussed above).

[2] = associated with a 40% increase in plasma αT; cited from earlier work
platelets [3] = assay: platelet aggregation in vitro (PRP, aggregometer); format: cell-based, human; settings: 500 μM α-tocopherol or 50 μM γ-tocopherol, 1 H preincubation
Protocol: […] inhibits platelet aggregation in vitro and in vivo, apparently through antagonism of protein kinase C (PKC) (60-63). Concentrations of αT necessary to inhibit aggregation in vitro are on the order of 500 μM (60-63), or approximately 10-fold higher than achieved in vivo. The concentration difference between in vitro and in vivo efficacy has been rationalized on the basis of incomplete tocopherol incorporation into membranes during in vitro incubation (63). Nonetheless, subjects supplemented with oral αT have diminished platelet aggregation (63). We therefore sought to investigate the ability of γ-tocopherol to inhibit platelet aggregation. PRP was obtained from two volunteers. Platelets were stimulated to aggregate with ADP, thrombin receptor activating peptide (TRAP) or the PKC agonist phorbol myristyl acetate (PMA) and aggregation was measured using a 4-channel clinical aggregometer. Specific platelet samples were preincubated with vehicle, αT, γT or 5-NO2-γ-tocopherol for 1 H prior to stimulation. Tocopherol concentrations were set at 10-fold excess to average PRP levels based on the precedent of previous in vitro aggregation experiments that used αT as an inhibitor (60-63).

[4] = median intake 419 vs. 6.4 IU/day, 39,910 men; cited from earlier work
[5] = 50 mg/kg supplement, 5.3 years follow-up; cited from earlier work
[6] = plasma concentrations of tocopherols and 5-NO2-γ-tocopherol in volunteers; format: in vivo, human; settings: mean ± SEM
Text: Smoking is recognized as a major contributing factor to heart disease and γ-T reportedly decreases more than α-T in smokers. Hypertension is also a strong risk factor for heart disease. […] Seven subjects indicated a chronic hypertensive condition. As outlined in Table I, γ-tocopherol tended to decrease in hypertensive subjects while nitration products tended to increase in both smokers and hypertensive subjects. This was the trend regardless of whether the tocopherol concentrations were normalized to plasma triglycerides (Table I).

[7] = 400-800 IU/day, 18 months, cited from earlier work
[8] = 35,000 postmenopausal women, 7 years; supplements alone or with dietary intake; cited from earlier work
[9] = rat, in vivo
Protocol: Rat pups were injected intraperitoneally (I.P.) with αT or γT in an olive oil vehicle every other day for 30 days beginning 2 days after birth; control animals received vehicle only. Olive oil was chosen as a vehicle because of the low tocopherol content in this particular vegetable oil. […] One half of each animal group was injected with a septic dose of LPS (2.5 mg/kg, I.P). After 24 H, animals were killed and organs collected. αKGDH was assayed in heart tissue and tocopherols were measured by HPLC-ECD/PDA.

[10] = own supplementation, 100 mg/kg/day, 10 days; cited from earlier work
[11] = 100 mg/kg/day for 10 days; 29% FeCl3 patch; cited from earlier work
αKGDH [12] = assay: heart αKGDH activity after tocopherol supplementation, with or without LPS challenge; format: in vivo, rat; settings: animals not subjected to LPS stress; 15 mg tocopherol I.P. over 30 days
Protocol: Rats were injected with 15 mg of tocopherol over the first 1 month of life; specific groups were then challenged with a septic dose of LPS and heart αKGDH activity was assayed 24 H later. *p<0.1 relative to vehicle; †p<0.05 relative to vehicle. N=5/group.
Rat pups were injected intraperitoneally (I.P.) with αT or γT in an olive oil vehicle every other day for 30 days beginning 2 days after birth; control animals received vehicle only. […] A total of 15 mg tocopherol was delivered to each animal over the 30 day period; animal weight at the end of the period was approximately 90 g for all three groups. One half of each animal group was injected with a septic dose of LPS (2.5 mg/kg, I.P). After 24 H, animals were killed and organs collected. αKGDH was assayed in heart tissue and tocopherols were measured by HPLC-ECD/PDA.

platelets [13] = settings: cited from earlier work
[14] = upper vs lowest quintile of αT consumption, 87,425 nurses, 8 years; cited from earlier work
[15] = test system: ECV304 human endothelial cells; settings: 10 μM α-T, 10 μM γ-T or 5 μM of each; 19 hours preincubation; 5 mM SIN-1; 24 hours
Protocol: Cultured ECV304 human endothelial cells were exposed to SIN-1 in the presence of 10 μM α-T, 10 μM γ-T or 5 μM of each (FIG. 5). Tocopherols were incubated with the cells for 19 hours prior to addition of SIN-1. Viability was assayed 24 hours later using a standard tetrazolium (MTT) reduction assay.

[16] = 400 IU/day natural αT, 4.5 years, 9541 subjects; cited from earlier work
[17] = cited from earlier work
[18] = chronic αT supplementation; cited from earlier work

In the case of `Cc1c(C)c2c(c(C)c1O)CC[C@@](C)(CCC[C@H](C)CCC[C@H](C)CCCC(C)C)O2` [α-tocopherol, reference compound], the “concentration offering as much αKGDH protection as 50-100 nM γT” value (αKGDH [1]) is given as 1 to 10 µM, the “tocopherol concentration of maximal αKGDH protection” value (αKGDH [1]; rat brain mitochondria) is given as 1 µM and the “lower mortality rate (ischemic heart disease)” value [2] is given as 84%. For the same compound, the “Platelet Aggregation (% maximum)” value (platelets [3]; ADP 20 μM, Subject 1) was 85 % maximum, the “Platelet Aggregation (% maximum)” value (platelets [3]; ADP 20 μM, Subject 2) was 72 % maximum and the “Platelet Aggregation (% maximum)” value (platelets [3]; PMA 200 nM, Subject 1) was 74 % maximum. The “Platelet Aggregation (% maximum)” value (platelets [3]; PMA 200 nM, Subject 2) was 34 % maximum, the “Platelet Aggregation (% maximum)” value (platelets [3]; TRAP 20 μM, Subject 1) was 44 % maximum and the “Platelet Aggregation (% maximum)” value (platelets [3]; TRAP 20 μM, Subject 2) was 75 % maximum. The “diminished risk of CAD” value [4] was 39%, the “effect on MI or mortality” value [5] was “no effect” and the plasma concentration ([6]; hypertensives, N = 7) was 23.1 ± 12.2 μg/mL plasma. For the same compound, the “plasma concentration normalized to triglyceride” value (shortened to “plasma concentration normalized”) ([6]; hypertensives, N = 7) was 21.9 ± 5.9 μg/mg triglyceride, the plasma concentration ([6]; population, N = 54) was 18.3 ± 2.6 μg/mL plasma and the “plasma concentration normalized” value ([6]; population, N = 54) was 34.2 ± 14.2 μg/mg triglyceride. The plasma concentration ([6]; smokers, N = 7) was 24.9 ± 9.2 μg/mL plasma, the “plasma concentration normalized” value ([6]; smokers, N = 7) was 21.5 ± 4.5 μg/mg triglyceride and the “reduction in nonfatal myocardial infarction” value ([7]; 2002 male smokers with CAD) was 77%. The “increase in all-cause mortality” value [7] was 29%, the “benefit of supplements on cardiovascular death” value [8] was “no benefit” and the “heart tissue tocopherol concentration, controls” value [9] was 23±12 ng/mg protein. The “increase of plasma level above baseline” value [10] was 2 fold, the “delay/increase of time to occlusive thrombus” value [11] was 25% and the “increase of mean heart αKGDH activity” value (αKGDH [12]) was 40%. The “concentration necessary to inhibit aggregation in vitro” value (platelets [13]) was roughly 500 µM, the “diminished risk of coronary disease” value [14] was 34% and the “effect on SIN-1 toxicity (MTT viability)” value [15] was “no apparent effect”. For the same compound, the “effect on primary or secondary cardiovascular outcomes or death” value [16] was “no effect”, the “increase of plasma αT” value ([17]; 50 IU/day supplementation) was 50% and the “effect on death from hemorrhagic stroke” value ([17]; 50 IU/day, 5-8 years) was “increases death from hemorrhagic stroke”. For the same compound, the “effect on total mortality of smokers” value ([17]; 50 IU/day, 5-8 years) was “does not decrease total mortality” and the “increase of plasma levels of αT” value [18] was 300-400%.
